According to ChEMBL document CHEMBL3627608, “Crystal structures of human RIP2 kinase catalytic domain complexed with ATP-competitive inhibitors: Foundations for understanding inhibitor selectivity” (Bioorg Med Chem, 2015):

Key:
[1] = molecular target: T1, Protein kinase C zeta type (Homo sapiens) (UniProt Q05513); experiment: Inhibition of PKCzeta (unknown origin) at 10 uM after 120 mins P33 radiolabeled kinase activity assay
T1 sequence (whole entry): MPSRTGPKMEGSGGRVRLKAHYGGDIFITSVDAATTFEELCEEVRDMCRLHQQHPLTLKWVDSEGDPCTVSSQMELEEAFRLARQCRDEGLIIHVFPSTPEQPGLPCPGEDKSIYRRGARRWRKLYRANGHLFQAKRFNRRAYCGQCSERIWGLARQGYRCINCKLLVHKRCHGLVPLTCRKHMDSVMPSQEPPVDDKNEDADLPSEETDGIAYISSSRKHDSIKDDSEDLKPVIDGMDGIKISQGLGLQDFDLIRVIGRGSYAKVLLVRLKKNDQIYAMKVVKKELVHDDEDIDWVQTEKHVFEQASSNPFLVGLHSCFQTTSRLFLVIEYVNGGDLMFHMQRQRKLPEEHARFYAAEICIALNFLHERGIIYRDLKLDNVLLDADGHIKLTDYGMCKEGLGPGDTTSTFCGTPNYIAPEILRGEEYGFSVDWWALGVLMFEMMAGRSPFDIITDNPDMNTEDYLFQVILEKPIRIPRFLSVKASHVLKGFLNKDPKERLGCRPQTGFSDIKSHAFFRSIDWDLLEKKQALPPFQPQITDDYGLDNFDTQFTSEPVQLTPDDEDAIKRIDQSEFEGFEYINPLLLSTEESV

[2] = molecular target: T2, Inhibitor of nuclear factor kappa-B kinase subunit beta (Homo sapiens) (UniProt O14920); experiment: Inhibition of IKKbeta (unknown origin) at 10 uM after 120 mins P33 radiolabeled kinase activity assay
T2 sequence (whole entry): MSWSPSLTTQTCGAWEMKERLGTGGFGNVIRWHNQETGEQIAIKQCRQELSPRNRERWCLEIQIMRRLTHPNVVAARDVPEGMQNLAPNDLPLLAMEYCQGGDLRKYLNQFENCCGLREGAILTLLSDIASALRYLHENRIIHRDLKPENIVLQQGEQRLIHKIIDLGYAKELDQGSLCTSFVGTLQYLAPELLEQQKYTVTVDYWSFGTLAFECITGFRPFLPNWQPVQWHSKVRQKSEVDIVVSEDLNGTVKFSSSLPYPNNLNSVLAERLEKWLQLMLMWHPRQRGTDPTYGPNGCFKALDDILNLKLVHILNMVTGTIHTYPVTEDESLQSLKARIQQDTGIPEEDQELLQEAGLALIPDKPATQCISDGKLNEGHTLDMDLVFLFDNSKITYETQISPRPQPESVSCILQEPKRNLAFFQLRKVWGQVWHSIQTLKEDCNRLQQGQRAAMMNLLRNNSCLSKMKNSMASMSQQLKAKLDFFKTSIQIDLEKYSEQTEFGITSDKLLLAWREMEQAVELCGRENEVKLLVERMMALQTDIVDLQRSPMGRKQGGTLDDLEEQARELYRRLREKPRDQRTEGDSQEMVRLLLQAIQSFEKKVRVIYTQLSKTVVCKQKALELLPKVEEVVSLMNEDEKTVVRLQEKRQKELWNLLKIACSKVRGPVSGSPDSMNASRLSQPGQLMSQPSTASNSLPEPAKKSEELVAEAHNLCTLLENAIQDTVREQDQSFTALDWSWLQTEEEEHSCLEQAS

[3] = molecular target: T3, Serine/threonine-protein kinase TAO2 (Homo sapiens) (UniProt Q9UL54); experiment: Inhibition of TAOK2 (unknown origin) at 10 uM after 120 mins P33 radiolabeled kinase activity assay
T3 sequence (whole entry): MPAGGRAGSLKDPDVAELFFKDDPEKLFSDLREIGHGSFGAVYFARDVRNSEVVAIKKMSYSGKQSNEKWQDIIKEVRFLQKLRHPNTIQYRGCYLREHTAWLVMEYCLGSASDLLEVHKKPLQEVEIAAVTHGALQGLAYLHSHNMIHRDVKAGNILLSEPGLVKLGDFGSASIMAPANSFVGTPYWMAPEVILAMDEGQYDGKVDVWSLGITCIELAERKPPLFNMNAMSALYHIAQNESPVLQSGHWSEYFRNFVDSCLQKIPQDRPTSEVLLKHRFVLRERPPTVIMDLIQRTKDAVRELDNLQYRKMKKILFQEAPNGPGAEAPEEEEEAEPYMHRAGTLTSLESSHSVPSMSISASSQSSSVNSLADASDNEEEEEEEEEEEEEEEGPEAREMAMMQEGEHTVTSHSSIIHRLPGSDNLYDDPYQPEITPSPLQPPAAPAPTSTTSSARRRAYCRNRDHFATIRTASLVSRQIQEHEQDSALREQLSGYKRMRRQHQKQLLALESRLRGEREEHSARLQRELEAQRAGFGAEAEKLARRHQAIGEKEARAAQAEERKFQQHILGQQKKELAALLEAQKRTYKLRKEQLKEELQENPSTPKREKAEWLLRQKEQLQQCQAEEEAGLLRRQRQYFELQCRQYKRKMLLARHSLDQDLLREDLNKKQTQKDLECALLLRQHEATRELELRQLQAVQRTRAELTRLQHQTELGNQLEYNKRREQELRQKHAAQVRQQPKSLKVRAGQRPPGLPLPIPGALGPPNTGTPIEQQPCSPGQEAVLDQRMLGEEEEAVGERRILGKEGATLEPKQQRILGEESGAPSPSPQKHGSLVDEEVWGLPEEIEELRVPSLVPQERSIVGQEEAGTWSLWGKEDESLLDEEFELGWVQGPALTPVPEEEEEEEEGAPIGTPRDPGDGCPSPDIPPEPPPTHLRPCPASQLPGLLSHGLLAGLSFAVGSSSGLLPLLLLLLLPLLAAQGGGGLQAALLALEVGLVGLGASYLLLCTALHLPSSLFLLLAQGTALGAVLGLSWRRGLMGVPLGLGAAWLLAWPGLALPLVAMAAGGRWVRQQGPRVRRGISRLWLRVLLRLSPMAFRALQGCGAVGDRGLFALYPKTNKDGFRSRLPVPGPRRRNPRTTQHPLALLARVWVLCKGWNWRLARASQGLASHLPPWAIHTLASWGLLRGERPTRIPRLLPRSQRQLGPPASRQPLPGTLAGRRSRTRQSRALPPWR

SMILES | inhibition [1] [%] | inhibition [2] [%] | inhibition [3] [%]
COCCNC(=O)c1ccc2c(c1)nc(-c1cnc(-c3ccc(Cl)cc3)[nH]1)n2CCOC | 3.68 | -5.88 | 1.71
CS(=O)(=O)c1cccc(Nc2nccc(-c3sc(N4CCOCC4)nc3-c3cccc(NS(=O)(=O)c4c(F)cccc4F)c3)n2)c1 | 7.55 | 1.51 | 77.8
CC(C)(C)c1cc(NC(=O)Nc2ccc(Oc3ccncc3)cc2)no1 | 5.44 | -0.16 | 96.7
